Some results are limits rather than exact numbers.

For one experiment, the target named is wild type RET (Homo sapiens (Human), UniProt P07949). Put plainly: RET Wild Type Assay at KM (Caliper electrophoretic mobility shift). Format: biochemical. As to conditions: 25 μM ATP (KM).
A further experiment addresses RET V804L (Homo sapiens (Human), UniProt P07949, V804L). The experiment in a line: RET V804L Gatekeeper Mutant Assay at KM (Caliper electrophoretic mobility shift). Format: biochemical. Particulars: 10 μM ATP (KM), read-out: V480L Mutant.

Chain of wild type RET (P07949 29-1114): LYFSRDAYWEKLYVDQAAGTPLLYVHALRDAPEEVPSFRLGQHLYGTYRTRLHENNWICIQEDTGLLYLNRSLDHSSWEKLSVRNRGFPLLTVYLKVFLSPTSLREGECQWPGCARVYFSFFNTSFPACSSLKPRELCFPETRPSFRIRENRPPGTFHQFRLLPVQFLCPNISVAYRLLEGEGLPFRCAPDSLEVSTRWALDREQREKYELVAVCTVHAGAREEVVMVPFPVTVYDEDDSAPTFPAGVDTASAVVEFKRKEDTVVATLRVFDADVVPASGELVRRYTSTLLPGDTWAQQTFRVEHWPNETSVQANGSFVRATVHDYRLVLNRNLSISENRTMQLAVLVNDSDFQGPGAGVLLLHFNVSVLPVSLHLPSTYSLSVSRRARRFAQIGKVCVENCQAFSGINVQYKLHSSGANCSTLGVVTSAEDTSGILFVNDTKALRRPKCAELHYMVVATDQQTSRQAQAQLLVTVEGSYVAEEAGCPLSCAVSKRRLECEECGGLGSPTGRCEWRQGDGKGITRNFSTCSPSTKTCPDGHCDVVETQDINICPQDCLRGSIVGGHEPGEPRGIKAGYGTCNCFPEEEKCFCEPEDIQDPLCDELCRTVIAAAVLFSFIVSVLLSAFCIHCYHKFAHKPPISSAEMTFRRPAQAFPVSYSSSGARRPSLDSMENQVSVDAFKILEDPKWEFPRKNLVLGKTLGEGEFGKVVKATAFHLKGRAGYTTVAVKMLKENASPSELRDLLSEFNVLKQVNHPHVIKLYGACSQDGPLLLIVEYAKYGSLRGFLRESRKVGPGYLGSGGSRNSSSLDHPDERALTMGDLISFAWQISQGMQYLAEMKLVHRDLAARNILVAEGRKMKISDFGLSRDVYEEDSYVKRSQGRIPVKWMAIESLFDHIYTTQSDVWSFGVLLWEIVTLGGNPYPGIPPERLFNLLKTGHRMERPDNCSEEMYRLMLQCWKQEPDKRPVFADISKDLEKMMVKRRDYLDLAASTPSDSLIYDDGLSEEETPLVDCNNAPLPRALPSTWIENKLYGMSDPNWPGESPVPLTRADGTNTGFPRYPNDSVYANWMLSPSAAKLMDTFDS
Chain of RET V804L (P07949 29-1114 V804L): as the sequence (P07949 29-1114) above, with V776L counted along it

`COC1(C(=O)N[C@@H](C)c2ccc(-n3cccn3)nc2)CN(c2nc(Nc3cc(C)[nH]n3)cc(C)c2C#N)C1` [Compound 175]: the IC50 at wild type RET and on RET V804L was below 10 nM each time.
Consider `Cc1cc(Nc2cc(C)[nH]n2)nc(N2CC(F)(C(=O)N[C@@H](C)c3ccc(-n4cccn4)nc3)C2)n1` [Compound 122], for which the IC50 at wild type RET and on RET V804L was below 10 nM each time.
As for `COC1(C(=O)NCc2ccccc2)CCN(c2nc(C)cc(Nc3cc(C)[nH]n3)n2)CC1` [Compound 104], the IC50 at wild type RET is above 100 nM; on RET V804L, 10 to 100 nM.
Take `COC1(C(=O)NCc2ccc(-n3cccn3)nc2)CCN(c2nc(Nc3cc(C)[nH]n3)cc(C)c2C#N)CC1` [Compound 207]: the IC50 at wild type RET and on RET V804L was below 10 nM throughout.
Consider `Cc1cc(Nc2cc(C(F)F)cc(N3CC(F)(C(=O)NCc4ccc(-n5cc(F)cn5)nc4)C3)n2)n[nH]1` [Compound 180], for which the IC50 at wild type RET and at RET V804L was below 10 nM in each case.
Take `Cc1cc(Nc2cc(C)[nH]n2)nc(N2CCC(C)(C(=O)N[C@@H](C)c3ccc(-n4cc(F)cn4)nc3)CC2)n1` [Compound 191]: the IC50 at wild type RET and on RET V804L was below 10 nM in each case.
For the compound `COC1(C(=O)N[C@@H](C)c2ccc(-n3cccn3)nc2)CN(c2nc(Nc3cc(C)[nH]n3)cc(C)c2F)C1` [Compound 168], the IC50 at wild type RET and at RET V804L was below 10 nM throughout.
Regarding `Cc1cc(Nc2cc(C)[nH]n2)nc(N2CCC(O)(C(=O)NCc3ccc(-n4nc(C)cc4C)nc3)CC2)c1` [Compound 182], the IC50 at wild type RET and at RET V804L was below 10 nM throughout.
Take `COC1(C(=O)NCc2cnc(-n3ccc(C(F)F)n3)cn2)CN(c2nc(C)cc(Nc3cc(C)[nH]n3)n2)C1` [Compound 205]: the IC50 at wild type RET was 10 to 100 nM; at RET V804L, below 10 nM.
The matching figures for `Cc1cc(Nc2cc(C)[nH]n2)nc(N2CCC(C(=O)N[C@@H](C)c3ccc(-n4cc(F)cn4)nc3)CC2)c1` [Compound 164]: below 10 nM and below 10 nM.
The matching figures for `COC1(C(=O)N[C@@H](C)c2ccc(-n3cc(F)cn3)nc2)CN(c2nc(Nc3cc(C)[nH]n3)cc(C)c2C#N)C1` [Compound 212]: below 10 nM and below 10 nM.
With `COC1(C(=O)N[C@@H](C)c2ccc(-n3cc(F)cn3)nc2)CN(c2cc(C)cc(Nc3cc(C)[nH]n3)n2)C1` [Compound 167], the IC50 at wild type RET and at RET V804L was below 10 nM each time.
`CCOC1(C(=O)N[C@@H](C)c2ccc(-n3cc(F)cn3)nc2)CN(c2cc(C)cc(Nc3cc(C)[nH]n3)n2)C1` [Compound 194, (S)-3-ethoxy-N-(1-(6-(4-fluoro-1H-pyrazol-1-yl)pyridin-3-yl)ethyl)-1-(4-methyl-6-((5-methyl-1H-pyrazol-3-yl)amino)pyridin-2-yl)azetidine-3-carboxamide]: the IC50 at wild type RET and on RET V804L was below 10 nM throughout.
With `Cc1cc(Nc2cc(C)c(C#N)c(N3CC(F)(C(=O)N[C@@H](C)c4ccc(-n5cc(F)cn5)nc4)C3)n2)n[nH]1` [Compound 189], the IC50 on wild type RET and on RET V804L was below 10 nM each time.
For the compound `Cc1cc(Nc2cc(C)[nH]n2)nc(N2CC[C@H](C(=O)NCc3ccc(-n4cccn4)nc3)[C@H](O)C2)c1` [Compound 135], the IC50 at wild type RET and at RET V804L was 10 to 100 nM each time.
As for `Cc1cc(Nc2cc(C)[nH]n2)nc(N2CCC(O)(C(=O)NCc3ccccc3)CC2)n1` [Compound 103], the IC50 at wild type RET and at RET V804L was above 100 nM in each case.
As to `Cc1cc(Nc2cc(C)[nH]n2)nc(N2CC(F)(C(=O)NCc3ccc(-n4cccn4)nc3)C2)c1` [Compound 111], the IC50 on wild type RET and at RET V804L was below 10 nM in each case.
Regarding `COC1(C(=O)N[C@@H](C)c2ccc(-n3cc(F)cn3)nc2)CN(c2cc(C)nc(Nc3cc(C)[nH]n3)n2)C1` [Compound 170], the IC50 at wild type RET and on RET V804L was below 10 nM each time.
Take `COC1(C(=O)NCc2ccc(-n3cc(C4CC4)cn3)nc2)CN(c2nc(C)cc(Nc3cc(C)[nH]n3)n2)C1` [Compound 178]: the IC50 at wild type RET and at RET V804L was below 10 nM throughout.
Consider `Cc1cc(Nc2cc(C)[nH]n2)nc(N2CCC(CC#N)(C(=O)N[C@@H](C)c3ccc(-n4cccn4)nc3)CC2)n1` [Compound 206], for which the IC50 at wild type RET and at RET V804L was below 10 nM throughout.
Regarding `COC1(C(=O)NCc2ccc(N3CC[C@@H](F)C3)nc2)CN(c2nc(C)cc(Nc3cc(C)[nH]n3)n2)C1` [Compound 155], the IC50 on wild type RET was above 100 nM; on RET V804L, 10 to 100 nM.
The matching figures for `COC1(C(=O)NCc2ccc(-n3nc(C)cc3C)nc2)CN(c2nc(C)cc(Nc3cc(C)[nH]n3)n2)C1` [Compound 163]: 10 to 100 nM and 10 to 100 nM.
The matching figures for `COC1(C(=O)NCc2ccc(-n3cc(C)cn3)nc2)CN(c2nc(C)cc(Nc3cc(C)[nH]n3)n2)C1` [Compound 138]: 10 to 100 nM and below 10 nM.
The matching figures for `COC1(C(=O)NCc2ccc(N3CC(F)C3)nc2)CN(c2nc(C)cc(Nc3cc(C)[nH]n3)n2)C1` [Compound 125]: above 100 nM and above 100 nM.
As for `COC1(C(=O)NCc2ccc(-n3nc(C)cc3C)nc2)CCN(c2nc(C)cc(Nc3cc(C)[nH]n3)n2)CC1` [Compound 215], the IC50 at wild type RET and on RET V804L was below 10 nM in each case.
On to `COC1(C(=O)NCc2ccc(-n3cc(F)cn3)nc2)CCN(c2nc(C)cc(Nc3cc(C)[nH]n3)n2)CC1` [Compound 195], for which the IC50 at wild type RET and at RET V804L was below 10 nM in each case.
In the case of `COC1(C(=O)NCc2ccc(-n3ccc(C)n3)nc2)CN(c2nc(C)cc(Nc3cc(C)[nH]n3)n2)C1` [Compound 137], the IC50 at wild type RET and on RET V804L was below 10 nM throughout.
`COC1(C(=O)NCc2ccc(-n3cccn3)nc2)CN(c2cc(C(F)F)cc(Nc3cc(C)[nH]n3)n2)C1` [Compound 173]: the IC50 on wild type RET and on RET V804L was below 10 nM throughout.
For `COC1(C(=O)NCc2ccc(-n3cccn3)nc2)CCN(c2nc(C)cc(Nc3cc(C)[nH]n3)n2)CC1` [Compound 161, N-((6-(1H-pyrazol-1-yl)pyridin-3-yl)methyl)-4-methoxy-1-(4-methyl-6-((5-methyl-1H-pyrazol-3-yl)amino)pyrimidin-2-yl)piperidine-4-carboxamide], the IC50 on wild type RET and on RET V804L was below 10 nM each time.
As to `Cc1cc(Nc2cc(C)[nH]n2)nc(N2CCC(C(=O)NCc3ccc(-n4cccn4)nc3)CC2)n1` [Compound 118], the IC50 on wild type RET and at RET V804L was below 10 nM throughout.
Take `Cc1cc(Nc2cc(C)[nH]n2)nc(N2CC(C(=O)N(C)[C@@H](C)c3ccc(-n4cc(F)cn4)nc3)C2)c1` [Compound 140]: the IC50 on wild type RET and at RET V804L was below 10 nM in each case.
For `COCCC1(C(=O)NCc2ccc(-n3cccn3)nc2)CCN(c2nc(C)cc(Nc3cc(C)[nH]n3)n2)CC1` [Compound 213], the IC50 on wild type RET and on RET V804L was below 10 nM each time.
With `COC1(C(=O)NCc2ccc(-n3cccn3)nc2)CN(c2nc(Nc3cc(C)[nH]n3)cc(C)c2C#N)C1` [Compound 156], the IC50 on wild type RET and at RET V804L was below 10 nM throughout.
In the case of `Cc1cc(Nc2cc(C)[nH]n2)nc(N2CCC(F)(C(=O)NCc3ccc(-n4cccn4)nc3)CC2)n1` [Compound 141], the IC50 at wild type RET and on RET V804L was below 10 nM in each case.
For `Cc1cc(Nc2cc(C)[nH]n2)nc(N2CC(C#N)(C(=O)N[C@@H](C)c3ccc(-n4cccn4)nc3)C2)n1` [Compound 126], the IC50 on wild type RET and on RET V804L was below 10 nM in each case.
Take `Cc1cc(Nc2cc(C)[nH]n2)nc(N2CC[C@H](C(=O)NCc3ccc(-n4cccn4)nc3)[C@@H](O)C2)c1` [Compound 132]: the IC50 on wild type RET and at RET V804L was below 10 nM each time.
As for `COC1(C(=O)NCc2ccc(-n3cc(F)cn3)nc2)CN(c2nc(Nc3cc(C)[nH]n3)cc(C)c2C#N)C1` [Compound 184], the IC50 at wild type RET and on RET V804L was below 10 nM each time.
As for `COC1(C(=O)NCc2ccc(N3CCC(F)(F)C3)nc2)CN(c2nc(C)cc(Nc3cc(C)[nH]n3)n2)C1` [Compound 176], the IC50 on wild type RET and on RET V804L was 10 to 100 nM in each case.
Take `Cc1cc(Nc2cc(C)[nH]n2)nc(N2CC(F)(C(=O)NCc3ccc(-n4cccn4)nc3)C2)n1` [Compound 112]: the IC50 on wild type RET and on RET V804L was below 10 nM each time.
Turning to `COC1(C(=O)N[C@@H](C)c2ccc(-n3cc(F)cn3)nc2)CN(c2nc(C)cc(Nc3cc(C)[nH]n3)n2)C1` [Compound 169], the IC50 at wild type RET and on RET V804L was below 10 nM throughout.
As for `COC1(C(=O)N(C)[C@@H](C)c2ccc(-n3cccn3)nc2)CCN(c2nc(C)cc(Nc3cc(C)[nH]n3)n2)CC1` [Compound 214], the IC50 at wild type RET and at RET V804L was below 10 nM in each case.
On to `COC1(C(=O)N[C@@H](C)c2ccc(-n3cc(F)cn3)nc2)CCN(c2nc(Nc3cc(C)[nH]n3)cc(C)c2C#N)CC1` [Compound 227], for which the IC50 at wild type RET and on RET V804L was below 10 nM in each case.
On to `Cc1cc(Nc2cc(C)[nH]n2)nc(N2CC[C@@H](C(=O)NCc3ccc(-n4cccn4)nc3)[C@@H](O)C2)c1` [Compound 134], for which the IC50 at wild type RET and at RET V804L was below 10 nM in each case.
Turning to `CO[C@]1(C(=O)N[C@@H](C)c2ccc(-n3cc(F)cn3)nc2)CN(c2nc(C)cc(Nc3cc(C)[nH]n3)n2)[C@H]1C` [Compound 199], the IC50 at wild type RET and on RET V804L was below 10 nM each time.
Regarding `COC1(C(=O)NCc2ccc(-n3cccn3)nc2)CCN(c2cc(C)cc(Nc3cc(C)[nH]n3)n2)CC1` [Compound 160, N-((6-(1H-pyrazol-1-yl)pyridin-3-yl)methyl)-4-methoxy-1-(4-methyl-6-(3-methyl-1H-pyrazol-5-ylamino)pyridin-2-yl)piperidine-4-carboxamide], the IC50 at wild type RET and at RET V804L was below 10 nM throughout.
